US10844420B2, “Method for detecting slow-VISA” (priority 2016, dated 2020)

How the values were obtained:
Format in all cases: cell-based, Staphylococcus aureus
slow-VISA [1] = assay: Disk diffusion method of VCM on BHI agar medium with or without mupirocin; conditions: 30 μg/mL vancomycin disks, BHI agar containing 0.032 μg/mL of mupirocin, culture for 48 hours
Method: The disk diffusion method using […] vancomycin disks was separately performed on BHI agar media containing 0.032 μg/mL of mupirocin or BHI agar media in the absence of a drug. […] The values shown above the panels indicate the averages and standard deviations of the diameters of inhibitory zones.

[2] = tested on: vancomycin-sensitive strain; assay: ETEST of VCM on BHI medium added with mupirocin, vancomycin-sensitive strain; conditions: BHI medium added with mupirocin at a concentration at which growth was not suppressed
Method: (§1) (2) The bacteria grown in step (a) is adjusted to OD=0.3 using an absorbance measuring instrument (wavelength of 578 nm), and it was set as 1×10^8 cells. Then, the bacteria are spread on a BHI agar medium of Eiken Chemical Co., Ltd. and a mupirocin-containing BHI agar medium, and the ETEST® strips (bioMerieux Japan Ltd.) of VCM and cefoxitin are placed thereon, followed by culture for 48 hours in accordance with the CLSI guideline. After 48 hours, tested bacteria having a MIC of cefoxitin of ≥8 μg/mL and a MIC of VCM of >6 μg/mL are suspected to be slow-VISA.
(§2) Further, it was supposed that the resistance further increased when the stringent response relating to those mutated genes was induced.

slow-VISA [3] = assay: Growth of slow-VISA in liquid medium containing VCM with or without mupirocin
Source text: In the figure, MUP indicates mupirocin.
(§3) From FIG. 1(b), when VISA was used, an increase in the growth rate by the addition of mupirocin was not observed.

slow-VISA [4] = assay: ETEST of VCM on BHI medium added with mupirocin, slow-VISA; conditions: BHI medium added with mupirocin at a concentration at which growth was not suppressed
Method: The pictures on the left show the results of a mupirocin-free medium after 96 hours, the pictures on the right show the results of a mupirocin-containing medium after 96 hours, and black arrows show the points after 48 hours.
as §1, §2

VISA = assay: Growth of VISA in liquid medium containing VCM with or without mupirocin; conditions: FIG. 1(b)
Source text: as §3

## C/C(=C\C(=O)OCCCCCCCCC(=O)O)C[C@@H]1OC[C@H](C[C@@H]2O[C@H]2[C@@H](C)[C@H](C)O)[C@@H](O)[C@H]1O [mupirocin]
slow-VISA [1]
  colonies around inhibitory zone: Small numerous colonies were detected
[2]
  degree of resistance (ETEST of VCM): did not increase
slow-VISA [3]; 0.032 μg/mL mupirocin and 16 μg/mL VCM versus comparison media, in 24 hours
  difference in OD values: ≥ 1
slow-VISA [3]; liquid medium, 0.032 μg/mL mupirocin and 16 μg/mL of VCM
  growth rate versus culture in mupirocin-free liquid medium or medium with growth-affecting mupirocin concentration and 8 μg/mL of VCM: larger
slow-VISA [4]
  degree of resistance (ETEST of VCM): increased
VISA
  increase in the growth rate by the addition of mupirocin: not observed
